Measurements taken from patent publication US20250289813A1, “CDK INHIBITORS, PHARMACEUTICAL COMPOSITIONS, AND THERAPEUTIC APPLICATIONS” (ONQUALITY PHARMACEUTICALS CHINA LTD., priority 2022, published 2025).
Each block holds one compound with its values, some of them ahead of it.

Columns and labels:
CDK4/cyclin D1 = CDK4/cyclin D1 (Homo sapiens (Human), UniProt P11802); test: CDK4 Caliper Mobility Shift assay; assay type: biochemical
In short: (§1)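 Caliper mobility-shift kinase assay with FAM-labeled peptide substrate. CDK4/cyclin D1 (15 nM) ran in 20 mM HEPES pH 7.5, 0.01% Triton X-100 at […] ATP; CDK6/cyclin D1 (7.5 nM) in 50 mM HEPES pH 7.5, 0.0015% BRIJ-35 at […] ATP. Compound was pre-incubated 10 min, reactions ran at 28 °C, and IC50 came from percent conversion inhibition.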

CDK6/cyclin D1 = CDK6/cyclin D1 (Homo sapiens (Human), UniProt Q00534); test: CDK6 Caliper Mobility Shift assay; assay type: biochemical
Sequence of CDK6/cyclin D1 (Q00534 whole entry): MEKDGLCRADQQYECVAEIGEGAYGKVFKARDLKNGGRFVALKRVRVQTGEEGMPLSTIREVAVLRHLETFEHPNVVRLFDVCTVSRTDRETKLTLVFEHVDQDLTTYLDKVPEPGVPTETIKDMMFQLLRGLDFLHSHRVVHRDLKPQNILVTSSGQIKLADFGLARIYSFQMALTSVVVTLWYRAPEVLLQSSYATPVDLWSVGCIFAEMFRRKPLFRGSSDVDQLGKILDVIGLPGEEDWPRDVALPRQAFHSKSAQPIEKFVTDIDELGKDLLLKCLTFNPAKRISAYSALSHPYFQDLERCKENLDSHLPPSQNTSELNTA
Sequence of CDK6/cyclin D1 (P24385 whole entry partner): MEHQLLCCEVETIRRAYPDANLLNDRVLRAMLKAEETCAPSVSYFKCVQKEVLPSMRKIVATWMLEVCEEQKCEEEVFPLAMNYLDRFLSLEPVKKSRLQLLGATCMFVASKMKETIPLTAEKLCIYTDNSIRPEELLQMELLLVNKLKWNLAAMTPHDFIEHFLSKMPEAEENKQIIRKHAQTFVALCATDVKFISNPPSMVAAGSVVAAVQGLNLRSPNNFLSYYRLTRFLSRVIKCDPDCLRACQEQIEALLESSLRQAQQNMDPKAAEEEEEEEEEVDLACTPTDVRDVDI
In short: as §1

[1] = test system: MCF-7 human breast cancer cells; test: CELLTITER-GLO luminescent cell viability assay; assay type: cell-based; conditions: MCF7, 192 h, MCF-7 cells, 8 days, read-out: EC50 (Effect on Cell Viability)
In short: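 MCF-7 cells grown in EMEM with 10% FBS and insulin, seeded at 3,000 cells/well and left to adhere overnight. Compound exposure lasted 8 days at 37 °C; viability was read by CellTiter-Glo luminescence.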

[2] = test system: COLO205 human colon cancer cells; test: CASPASE-GLO 3/7 apoptosis assay (protection against chemotherapy drug induced cytotoxicity); assay type: cell-based
Description: The CASPASE-GLO 3/7 apoptosis assay was used to evaluate the protective effect of a compound on the cytotoxicity induced by a chemotherapy drug. The apoptosis assay was carried out using COLO205 human colon cancer cells. The cells were grown at 37° C. in a 5% CO2 humidified incubator in PRIM1640 supplemented with 10% FBS and 0.01 mg/mL bovine insulin. The cells were seeded at 4,000 cells/well in a 96-well plate. After incubated overnight, the cells were pretreated with a compound at predetermined concentrations or a vehicle for 16 h, followed by addition of a chemotherapy drug. After incubated for another 48 h, the CASPASE-GLO 3/7 reagent (100 μL/well) was added. The cells were mixed on an orbital shaker for 10 min and incubated at room temperature for 2 h. The 96-well plate was read with an ENVISION reader.

BALB/c mice [3] = test: Irinotecan-induced diarrhea/constipation mouse model; assay type: in vivo; conditions: Day 7
Description: A compound was evaluated in an irinotecan-induced diarrhea/constipation mouse model for its protective effect on the cytotoxicity induced by a chemotherapy drug. On day 0, BALB/c mice (20-25 g, 7-8 weeks of age) were randomly divided into 3 groups (vehicle, irinotecan, and compound treatment) with 10 mice in each group. In the vehicle group, the mice were administered orally with the same medium in the same amount as used in the treatment group for the compound and then injected with the same medium in the same amount as used in the irinotecan group. In the irinotecan group, the mice were administered orally with the same medium in the same amount as used in the treatment group for the compound and then injected with irinotecan (240 mg/kg). In the treatment group, the mice were administrated orally with the compound and then injected with irinotecan (240 mg/kg). The compound was formulated with a 0.5% CMC solution. […]
(§2) On Day 7, the diarrhea grade of each mouse was determined according to the method described in Kurita et al., Cancer Chemother. Pharmacol. 2000, 46, 211-20, the disclosure of which is incorporated herein by reference in its entirety. The diarrhea remission rates were calculated using the formula of Diarrhea remission rate (%)=(diarrhea grade in 5-FU group−diarrhea grade in treatment group)/diarrhea grade in 5-FU group×100%.

BALB/c mice [4] = test: 5-FU-induced diarrhea mouse model; assay type: in vivo; conditions: day 7
Description: A compound was evaluated in a 5-FU-induced diarrhea mouse model for its protective effect on the cytotoxicity induced by the chemotherapy drug 5-FU. On day 0, BALB/c mice (20-25 g, 7-8 weeks of age) were randomly divided into 3 groups (vehicle, 5-FU, and compound treatment) with 10 mice in each group. In the vehicle group, the mice were administered orally with the same medium in the same amount as used in the treatment group for the compound and then injected with the same medium in the same amount as used in the 5-FU group. In the 5-FU group, the mice were administered orally with the same medium in the same amount as used in the treatment group for the compound and then injected with 5-FU (175 mg/kg). In the treatment group, the mice were administrated orally with the compound and then injected with 5-FU (175 mg/kg). The compound was formulated with a 0.5% CMC solution.
as §2, with “day” for “Day”, “Diarrhea” for “The diarrhea”, “group—diarrhea” for “group−diarrhea”

[5] = 10 mg/kg oral, 4 h before and 8 h after irinotecan (240 mg/kg)

Sequence of CDK4/cyclin D1 (P11802 whole entry): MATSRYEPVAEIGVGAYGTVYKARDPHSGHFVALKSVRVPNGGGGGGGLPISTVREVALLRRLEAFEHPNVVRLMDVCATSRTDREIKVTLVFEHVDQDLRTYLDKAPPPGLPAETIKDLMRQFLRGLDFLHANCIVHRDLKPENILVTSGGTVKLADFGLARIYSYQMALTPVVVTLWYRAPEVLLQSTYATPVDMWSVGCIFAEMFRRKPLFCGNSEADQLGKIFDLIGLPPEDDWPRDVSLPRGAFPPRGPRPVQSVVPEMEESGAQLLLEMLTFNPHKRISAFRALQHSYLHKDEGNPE
Sequence of CDK4/cyclin D1 (P24385 whole entry partner): as the sequence (P24385 whole entry partner) above

- IC50 (CDK4/cyclin D1): ≤ 200 nM
- IC50 (CDK6/cyclin D1): ≤ 200 nM
Structure (SMILES): CCS(=O)(=O)N1CCN(c2ccc(Nc3ncc4c(C)c(C(C)=O)c(=O)n(C5CCCC5)c4n3)nc2)CC1 [Compound C2, 6-Acetyl-8-cyclopentyl-2-((5-(4-(ethylsulfonyl)piperazin-1-yl)pyridin-2-yl)-amino)-5-methylpyrido[2,3-d]pyrimidin-7(81)-one]
- RPR (relative protection rate) ([2]; compound 0.2 μM, 5-Fu (10 μM)): 59%
- RPR (relative protection rate) ([2]; compound 2 μM, 5-Fu (10 μM)): 79%
- RPR (relative protection rate) ([2]; compound 20 μM, 5-Fu (10 μM)): 87%
- Remission Rate (diarrhea remission rate) (BALB/c mice [4]; 75 mg/kg oral, 8 h before and 4 h after 5-FU (175 mg/kg)): 50%
- Remission Rate (diarrhea remission rate) (BALB/c mice [3]; 75 mg/kg oral, 4 h before and 8 h after irinotecan (240 mg/kg)): 30%

- IC50 (CDK4/cyclin D1): ≤ 200 nM
- IC50 (CDK6/cyclin D1): ≤ 200 nM
- EC50 [1]: ≤ 1000 nM
Structure (SMILES): CC(=O)c1c(C)c2cnc(Nc3ccc(N4CCN(S(=O)(=O)OCOC(=O)C(C)(C)C)CC4)cn3)nc2n(C2CCCC2)c1=O [Compound B1, (((4-(6-((6-acetyl-8-cyclopentyl-5-methyl-7-oxo-7,8-dihydropyrido[2,3-d]-pyrimidin-2-yl)amino)pyridin-3-yl)piperazin-1-yl)sulfonyl)oxy)methyl pivalate]
- RPR (relative protection rate) ([2]; compound 5 μM, Irinotecan (20 μM)): 90%
- RPR (relative protection rate) ([2]; compound 50 μM, Irinotecan (20 μM)): 65%
- RPR (relative protection rate) ([2]; compound 100 μM, Irinotecan (20 μM)): 32%
- Remission Rate (diarrhea remission rate) (BALB/c mice [4]; 10 mg/kg oral, 8 h before and 4 h after 5-FU (175 mg/kg)): 38%
- Remission Rate (diarrhea remission rate) (BALB/c mice [3]; [5]): 60%

Further lines, the compound ahead of its results:

Structure (SMILES): CC(=O)c1c(C)c2cnc(Nc3ccc(N4CCN(S(=O)(=O)NC(=O)OCCO)CC4)cn3)nc2n(C2CCCC2)c1=O [Compound A1, 2-hydroxyethyl ((4-(6-((6-acetyl-8-cyclopentyl-5-methyl-7-oxo-7,8-dihydropyrido[2,3-d]pyrimidin-2-yl)amino)pyridin-3-yl)piperazin-1-yl)sulfonyl)carbamate]
- IC50 (CDK4/cyclin D1): ≤ 200 nM
- IC50 (CDK6/cyclin D1): ≤ 200 nM
- EC50 [1]: > 10000 nM
- RPR (relative protection rate) ([2]; compound 0.1 μM, 5-Fu (10 μM)): 13%
- RPR (relative protection rate) ([2]; compound 1 μM, 5-Fu (10 μM)): 82%
- RPR (relative protection rate) ([2]; compound 5 μM, 5-Fu (10 μM)): 90%
- RPR (relative protection rate) ([2]; compound 10 μM, 5-Fu (10 μM)): 68%
- RPR (relative protection rate) ([2]; compound 100 μM, 5-Fu (10 μM)): 11%
- Remission Rate (diarrhea remission rate) (BALB/c mice [3]; 5 mg/kg oral, 4 h before and 8 h after irinotecan (240 mg/kg)): 50%
- Remission Rate (diarrhea remission rate) (BALB/c mice [3]; 25 mg/kg oral, 4 h before and 8 h after irinotecan (240 mg/kg)): 70%
- Remission Rate (diarrhea remission rate) (BALB/c mice [3]; 100 mg/kg oral, 4 h before and 8 h after irinotecan (240 mg/kg)): 20%

Structure (SMILES): CCC(=O)NS(=O)(=O)N1CCN(c2ccc(Nc3ncc4c(C)c(C(C)=O)c(=O)n(C5CCCC5)c4n3)nc2)CC1 [Compound A35, N-((4-(6-((6-Acetyl-8-cyclopentyl-5-methyl-7-oxo-7,8-dihydropyrido[2,3-d]-pyrimidin-2-yl)amino)pyridin-3-yl)piperazin-1-yl)sulfonyl)propionamide]
- IC50 (CDK4/cyclin D1): ≤ 200 nM
- IC50 (CDK6/cyclin D1): ≤ 200 nM
- EC50 [1]: 1000 to 10000 nM
- RPR (relative protection rate) ([2]; compound 2 μM, Irinotecan (20 μM)): 83%
- RPR (relative protection rate) ([2]; compound 20 μM, Irinotecan (20 μM)): 81%
- Remission Rate (diarrhea remission rate) (BALB/c mice [4]; 5 mg/kg oral, 12 h before 5-FU (175 mg/kg)): 40%
- Remission Rate (diarrhea remission rate) (BALB/c mice [4]; 25 mg/kg oral, 12 h before 5-FU (175 mg/kg)): 50%
- Remission Rate (diarrhea remission rate) (BALB/c mice [3]; 10 mg/kg oral, 6 h before and 6 h after irinotecan (240 mg/kg)): 50%
- Remission Rate (diarrhea remission rate) (BALB/c mice [3]; 100 mg/kg oral, 6 h before and 6 h after irinotecan (240 mg/kg)): 70%

Structure (SMILES): CC(=O)c1c(C)c2cnc(Nc3ccc(N4CCN(S(=O)(=O)NC(=O)OC5CCOCC5)CC4)cn3)nc2n(C2CCCC2)c1=O [Compound A22, Tetrahydro-2H-pyran-4-yl ((4-(6-((6-acetyl-8-cyclopentyl-5-methyl-7-oxo-7,8-dihydropyrido[2,3-d]pyrimidin-2-yl)amino)pyridin-3-yl)piperazin-1-yl)sulfonyl)carbamate]
- IC50 (CDK4/cyclin D1): 200 to 500 nM
- IC50 (CDK6/cyclin D1): ≤ 200 nM
- EC50 [1]: > 10000 nM
- RPR (relative protection rate) ([2]; compound 0.5 μM, 5-Fu (10 μM)): 26%
- RPR (relative protection rate) ([2]; compound 25 μM, 5-Fu (10 μM)): 64%
- Remission Rate (diarrhea remission rate) (BALB/c mice [4]; 50 mg/kg oral, 8 h before and 4 h after 5-FU (175 mg/kg)): 55%
- Remission Rate (diarrhea remission rate) (BALB/c mice [4]; 100 mg/kg oral, 8 h before and 4 h after 5-FU (175 mg/kg)): 36%
- Remission Rate (diarrhea remission rate) (BALB/c mice [3]; 5 mg/kg oral, 6 h before and 6 h after irinotecan (240 mg/kg)): 30%
- Remission Rate (diarrhea remission rate) (BALB/c mice [3]; 25 mg/kg oral, 6 h before and 6 h after irinotecan (240 mg/kg)): 50%

Structure (SMILES): CC(=O)NCCOC(=O)NS(=O)(=O)N1CCN(c2ccc(Nc3ncc4c(C)c(C(C)=O)c(=O)n(C5CCCC5)c4n3)nc2)CC1 [Compound A15, 2-Acetamidoethyl ((4-(6-((6-acetyl-8-cyclopentyl-5-methyl-7-oxo-7,8-dihydropyrido[2,3-d]pyrimidin-2-yl)amino)pyridin-3-yl)piperazin-1-yl)sulfonyl)carbamate]
- IC50 (CDK4/cyclin D1): 200 to 500 nM
- IC50 (CDK6/cyclin D1): ≤ 200 nM
- EC50 [1]: 1000 to 10000 nM
- RPR (relative protection rate) ([2]; compound 0.1 μM, 5-Fu (10 μM)): 28%
- RPR (relative protection rate) ([2]; compound 1 μM, 5-Fu (10 μM)): 84%
- RPR (relative protection rate) ([2]; compound 10 μM, 5-Fu (10 μM)): 71%
- Remission Rate (diarrhea remission rate) (BALB/c mice [3]; [5]): 40%
- Remission Rate (diarrhea remission rate) (BALB/c mice [3]; 50 mg/kg oral, 4 h before and 8 h after irinotecan (240 mg/kg)): 60%
